Laboratory results taken from patent US20140148368A1, “DRILLING FLUIDS AND DRILLING FLUID ADDITIVES FOR TREATMENT OF BITUMEN IN WELLBORE CUTTINGS” (Marquis Alliance Energy Group Inc., priority 2012, published 2014).

Assay: Test Program #1: solubility of dodecanedioic acid powder in bitumen wafer
Type: physicochemical
Settings: ambient temperature, 3 days
Excerpt: The solubility of dodecanedioic acid powder in bitumen was proven in laboratory experiments in which a 30-gram bitumen core sample was compressed at 1,000 pounds per square inch using a compactor, to make bitumen wafers having a diameter of 2.75 cm and a depth (thickness) of 1.8 cm. The bitumen wafer was rolled over carefully in a container with a sufficient quantity of dodecanedioic acid powder. The surface of bitumen wafer was covered with a thin layer of the dodecanedioic acid powder, and the color of the bitumen turned from black to white.

## O=C(O)CCCCCCCCCCC(=O)O [dodecanedioic acid]
  solubility of powder in bitumen (visual inspection of powder-covered wafer): all of the white dodecanedioic acid powder had disappeared
